Assay [1] concerns reprogramming cells. Kind of assay: Mitotic shake-off of reprogramming cells. Format: cell-based, human. The conditions noted are these: day-4 reprogramming cells. On the procedure: • Mitotic shake-off: Reprogramming cells were prepared in T75 flasks. On day 4 of reprogramming, 1 h before mitotic shake-off, replace spent media with fresh reprogramming media. Shake the flasks at 200 rpm for 1 min and collect the media containing the shake-off mitotic cells. Add new warmed media and incubate for 10 min. Repeat these shake-off collection 2 more times. Pool the cells and centrifuge at 1,000×g for 5 min. Count the cells collected.

Assay [2] relates to reprogramming cells. Kind of assay: Cell cycle analysis by flow cytometry of reprogramming cells. Format: cell-based, human. The conditions noted are these: day 6 of reprogramming, compared to controls. On the procedure: • Cell Cycle Analysis: Harvest cells by trypsin solution. Fix cell with 70% cold ethanol overnight at 4° C. The next day, wash cells with PBS. Treat cells with 0.2 mg/ml RNase A in PBS containing 0.1% Triton X-100 at 37° C. for 1 h. Add PI at a final concentration of 10 μg/ml. Keep the cells in dark and at 4° C. until analysis. Analyze on BD LSRFortessa. Percentage of cells at each cell cycle phases was determined with Watson (pragmatic) (Watson et al., (1987) Cytometry 8: 1-8) and Dean-Jett-Fox (Fox M. H. (1980) Cytometry 1: 71-77) models on FlowJow.
On the technique in general: Flow cytometry measures light scatter and fluorescence of single cells or particles in a stream.

Assay [3] relates to reprogramming cells. Briefly: Senescence analysis (SA-β-galactosidase staining) of reprogramming cells. Format: cell-based, human. The conditions noted are these: early stages of reprogramming (day 5). The source says: • Senescence analysis: Prepare reprogramming cells as stated in the reprogramming section. At day 5 of reprogramming, stain cells for endogenous p-galactosidase using the Cell Senescence Kit (Cell Signaling Technology, #9860s) per manufacturer's instruction. Count the β-galactosidase^+ cells in 10 randomly selected fields in each treated groups. The total cells were counted based on DAPI staining.

Assay [4] has as its system Human fibroblasts. Kind of assay: CyQUANT cell proliferation assay of reprogramming cells. The conditions noted are these: before day 9 of reprogramming. Format: cell-based. On the procedure:
• Cell proliferation assays: Human fibroblasts were transduced with reprogramming viruses. Forty-eight hs post transduction, the reprogramming cells were plated at 4,000 cells/well of a 96-well plate. Five replicates were performed for each condition. On days 0, 1, 3, 5, 7, 9, 11 and 13, the cells were measured using a CyQUANT® NF Cell Proliferation Assay Kit (Life Technologies; c35007) per manufacturer's instruction.

Assay [5] has as its target T1, H3K14Ac (Homo sapiens, UniProt P68431).
T1 construct: Histone tails used for peptide pull-down experiments; expressed in transfected cells; host or cells: human BJ fibroblasts transduced with BRD3R lentivirus (lysate)
Briefly: Histone peptide pull-down assay. Format: binding. The following applies: lysates of human fibroblasts overexpressing the protein. On the procedure: (§1) • Histone peptide pull-down assay: H3 or H4 histone tails with 8 different acetylation modifications were evaluated for binding with BRD3R and BRD3. One unmodified tail for each histone was used for negative control.
(§2) Human BJ fibroblasts were transduced with BRD3 or BRD3R viruses. Three days post-transduction, cells were lysed by non-denaturing lysis buffer (20 mM HEPES pH 7.9, 150 mM NaCl, 1 mM MgCl2, 0.5% NP40, 10 mM NaF, 0.2 mM NaVO4, 10 mM β-glycerol phosphate, 5% glycerol, 1 mM DTT, 1 mM PMSF and protease inhibitors). Twenty μg of the cell lysates were incubated with 1 μg biotinylated peptide in 300 μl binding buffer (50 mM Tris pH 7.5, 150 mM NaCl, 0.1% NP-40, 1 mM PMSF and protease inhibitors) at 4° C. for overnight. The next day, 30 μl of Dynabeads M-280 Streptavidin was added into each sample (Invitrogen, 11205D). The mixture of proteins, antibodies and beads were further incubated with gentle rotation at 4° C. for 1 h. The beads were then washed with binding buffer three times. The bound proteins were resuspended in 60 μl of 2× SDS sample buffer. The pull-down proteins were analyzed by western using antibody of BRD3 (Proteintech, 11859-1-AP). Two micrograms of cell lysates were loaded as input control. For semi-quantification, band density was normalized to the corresponding inputs.

Assay [6] deals with T2, H3K9Ac (Homo sapiens, UniProt P68431).
T2 construct: Histone tails used for peptide pull-down experiments; expressed in transfected cells; host or cells: human BJ fibroblasts transduced with BRD3R lentivirus (lysate)
Briefly: Histone peptide pull-down assay. Format: binding. The following applies: lysates of human fibroblasts overexpressing the protein. On the procedure:
as §1, §2

Assay [7] addresses T3, H4K5Ac (Homo sapiens, UniProt P62805).
T3 construct: Histone tails used for peptide pull-down experiments; Peg-biotin (chemical label); expressed in transfected cells; host or cells: human BJ fibroblasts transduced with BRD3R lentivirus (lysate)
Briefly: Histone peptide pull-down assay. Format: binding. The following applies: lysates of human fibroblasts overexpressing the protein. As to the method: as §1, §2

The target in assay [8] is T4, biacetylated H3 (H3K9/14Ac) (Homo sapiens, UniProt P68431).
T4 construct: Histone tails used for peptide pull-down experiments; expressed in transfected cells; host or cells: human BJ fibroblasts transduced with BRD3R lentivirus (lysate)
Briefly: Histone peptide pull-down assay. Format: binding. The conditions noted are these: lysates of human fibroblasts overexpressing the protein. As to the method: as §1, §2

The target of assay [9] is T5, tetra-acetylated H4 (H4K5/8/12/16Ac) (Homo sapiens, UniProt P62805).
T5 construct: Histone tails used for peptide pull-down experiments; Peg-biotin (chemical label); incubated with lysate of human BJ fibroblasts transduced with BRD3R or BRD3 virus
Kind of assay: Histone peptide pull-down assay. Format: binding. The following applies: lysates of human fibroblasts overexpressing BRD3R or BRD3; western with BRD3 antibody. On the procedure: as §1, §2

For “BRD3R: BRD3 with Reprogramming activity; 556 aa isoform of human BRD3 (AAH32124, SEQ ID NO: 47), encoded by cDNA L61”, the “mitotic cells collected compared to controls” value in assay [1] is recorded as 2.43 ×. Also, in assay [2], the “number of cells in G1” value was “statistically reduced” and the “population of cells in G2/M phases” value is recorded as “statistically increased”. Besides, the “cell senescence (SA-β-galactosidase staining)” value in assay [3] is “Reduced cell senescence”. For the same substance, in assay [4], the “overall proliferation rate vs control cells” value was “comparable overall proliferation rates”. Moreover, in assay [5], the “binding to H3K14Ac peptide” value is recorded as “bound”. Also, the “binding to H3K9Ac peptide” value in assay [6] was “bound”. In addition, in [7], the “binding to H4K5Ac peptide” value was “weakly”. The “binding to H3K9/14Ac peptide” value in assay [8] is listed as “bound very weakly”. For the same substance, the “binding to H4K5/8/12/16Ac peptide” value in assay [9] was “bound strongly”.
